Test system: HER2
Assay: Degradation of HER2 in cells, Method 1 (SDS-PAGE / immunoblot)
Format: cell-based
Details: BT-474 cells, 0.5 μM, overnight in DMEM medium
Description: BT-474 cells are treated with 0.5 μM, 2 μM, or 5 μM of 17-AAG (a positive control) or 0.5 μM, 2 μM, or 5 μM of an Hsp90-targeting moiety or conjugate of the invention overnight in DMEM medium. After treatment, each cytoplasmic sample is prepared from 1×10^6 cells by incubation of cell lysis buffer (#9803, Cell Signaling Technology) on ice for 10 minutes. The resulting supernatant used as the cytosol fractions is dissolved with sample buffer for SDS-PAGE and run on a SDS-PAGE gel, blotted onto a nitrocellulose membrane by using semi-dry transfer. Non-specific binding to nitrocellulose is blocked with 5% skim milk in TBS with 0.5% Tween at room temperature for 1 hour, then probed with anti-HER2/ErB2 mAb (rabbit IgG, #2242, Cell Signaling) and anti-Tubulin (T9026, Sigma) as housekeeping control protein. HRP-conjugated goat anti-rabbit IgG (H+L) and HRP-conjugated horse anti-mouse IgG (H+L) are used as secondary Ab (#7074, #7076, Cell Signaling) and LumiGLO reagent, 20× Peroxide (#7003, Cell Signaling) is used for visualization. The Hsp90 client protein HER2 is degraded when cells are treated with Hsp90-targeting moieties or SDC-TRAPs of the invention.

C=CCNC1=C2C[C@@H](C)C[C@H](OC)[C@H](O)[C@@H](C)/C=C(\C)[C@H](OC(N)=O)[C@@H](OC)/C=C\C=C(/C)C(=O)NC(=CC1=O)C2=O [17-AAG]
degradation of HER2: partial degradation

— US20170136085A1, “TARGETED THERAPEUTICS” (SYNTA PHARMACEUTICALS CORP., priority 2014, published 2017)
